Assay [1] has as its target Phosphatidylinositol 4,5-bisphosphate 3-kinase catalytic subunit alpha isoform (Homo sapiens, UniProt P42336). As to the kind of experiment: (§1) Biochemical Assay: PI3K Isoform using biochemical assay.
Assay [2] addresses Phosphatidylinositol 4,5-bisphosphate 3-kinase catalytic subunit beta isoform (Homo sapiens, UniProt P42338). The assay is described as §1.
The target in assay [3] is T1, Phosphatidylinositol 4,5-bisphosphate 3-kinase catalytic subunit delta isoform (Homo sapiens, UniProt O00329).
T1 sequence (O00329 whole entry): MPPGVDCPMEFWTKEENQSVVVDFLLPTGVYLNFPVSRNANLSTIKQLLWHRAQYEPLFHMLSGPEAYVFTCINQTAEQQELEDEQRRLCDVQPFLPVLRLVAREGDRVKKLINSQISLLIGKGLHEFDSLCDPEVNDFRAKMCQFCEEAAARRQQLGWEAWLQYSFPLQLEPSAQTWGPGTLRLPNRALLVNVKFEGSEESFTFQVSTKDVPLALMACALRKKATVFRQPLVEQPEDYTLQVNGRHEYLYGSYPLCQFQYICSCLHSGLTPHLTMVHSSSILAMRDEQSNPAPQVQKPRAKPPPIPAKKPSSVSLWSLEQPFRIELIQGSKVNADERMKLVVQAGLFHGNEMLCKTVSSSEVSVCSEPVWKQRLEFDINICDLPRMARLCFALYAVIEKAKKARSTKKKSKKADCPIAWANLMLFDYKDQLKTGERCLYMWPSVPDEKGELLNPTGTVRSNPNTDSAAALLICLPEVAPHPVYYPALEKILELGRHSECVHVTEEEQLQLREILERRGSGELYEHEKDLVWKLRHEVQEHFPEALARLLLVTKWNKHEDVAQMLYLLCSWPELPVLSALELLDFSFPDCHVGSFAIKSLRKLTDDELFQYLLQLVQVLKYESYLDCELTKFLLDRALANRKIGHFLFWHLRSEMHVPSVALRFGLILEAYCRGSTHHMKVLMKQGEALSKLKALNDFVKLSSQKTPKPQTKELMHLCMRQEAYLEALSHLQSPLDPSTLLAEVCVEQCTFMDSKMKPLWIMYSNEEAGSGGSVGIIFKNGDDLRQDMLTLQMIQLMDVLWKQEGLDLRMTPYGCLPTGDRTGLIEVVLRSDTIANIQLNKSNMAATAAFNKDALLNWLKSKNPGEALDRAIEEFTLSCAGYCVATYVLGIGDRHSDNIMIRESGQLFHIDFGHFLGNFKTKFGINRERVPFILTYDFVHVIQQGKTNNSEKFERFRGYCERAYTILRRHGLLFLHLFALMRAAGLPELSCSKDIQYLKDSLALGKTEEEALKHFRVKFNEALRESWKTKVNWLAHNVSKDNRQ
The description is as §1.

In assay [4] the target is Phosphatidylinositol 4,5-bisphosphate 3-kinase catalytic subunit gamma isoform (Homo sapiens, UniProt P48736). The description is as §1.
Phosphatidylinositol 4,5-bisphosphate 3-kinase catalytic subunit gamma isoform, sequence (P48736 whole entry, canonical isoform): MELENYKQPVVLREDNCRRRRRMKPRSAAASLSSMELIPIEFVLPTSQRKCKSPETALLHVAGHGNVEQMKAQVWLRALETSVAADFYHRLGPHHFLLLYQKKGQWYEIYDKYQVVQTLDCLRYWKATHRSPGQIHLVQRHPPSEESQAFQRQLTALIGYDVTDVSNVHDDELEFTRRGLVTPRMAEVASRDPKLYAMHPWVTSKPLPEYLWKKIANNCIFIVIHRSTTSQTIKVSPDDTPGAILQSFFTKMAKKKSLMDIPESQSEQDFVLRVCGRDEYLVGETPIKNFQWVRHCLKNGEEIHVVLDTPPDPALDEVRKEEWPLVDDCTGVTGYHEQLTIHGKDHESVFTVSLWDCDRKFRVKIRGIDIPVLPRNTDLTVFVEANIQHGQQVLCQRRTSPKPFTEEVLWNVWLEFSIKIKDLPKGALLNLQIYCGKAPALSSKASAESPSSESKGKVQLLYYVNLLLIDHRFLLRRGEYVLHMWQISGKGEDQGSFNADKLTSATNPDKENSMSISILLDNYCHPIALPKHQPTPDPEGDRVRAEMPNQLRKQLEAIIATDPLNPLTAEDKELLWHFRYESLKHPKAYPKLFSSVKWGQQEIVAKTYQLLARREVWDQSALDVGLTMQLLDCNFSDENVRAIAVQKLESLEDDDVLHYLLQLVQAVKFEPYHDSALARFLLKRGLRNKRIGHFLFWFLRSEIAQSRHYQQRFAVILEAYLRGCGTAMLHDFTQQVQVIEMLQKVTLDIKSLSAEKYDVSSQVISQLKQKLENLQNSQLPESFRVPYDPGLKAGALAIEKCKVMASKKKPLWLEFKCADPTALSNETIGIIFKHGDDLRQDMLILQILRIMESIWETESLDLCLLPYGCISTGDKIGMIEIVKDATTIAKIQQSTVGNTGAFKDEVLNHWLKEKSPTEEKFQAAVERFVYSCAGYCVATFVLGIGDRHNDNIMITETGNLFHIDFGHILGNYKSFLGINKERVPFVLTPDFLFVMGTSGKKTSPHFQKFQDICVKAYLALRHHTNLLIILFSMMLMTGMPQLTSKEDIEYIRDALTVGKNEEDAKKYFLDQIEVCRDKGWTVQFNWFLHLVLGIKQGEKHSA

Phosphatidylinositol 4,5-bisphosphate 3-kinase catalytic subunit alpha isoform, sequence (P42336 whole entry, canonical isoform): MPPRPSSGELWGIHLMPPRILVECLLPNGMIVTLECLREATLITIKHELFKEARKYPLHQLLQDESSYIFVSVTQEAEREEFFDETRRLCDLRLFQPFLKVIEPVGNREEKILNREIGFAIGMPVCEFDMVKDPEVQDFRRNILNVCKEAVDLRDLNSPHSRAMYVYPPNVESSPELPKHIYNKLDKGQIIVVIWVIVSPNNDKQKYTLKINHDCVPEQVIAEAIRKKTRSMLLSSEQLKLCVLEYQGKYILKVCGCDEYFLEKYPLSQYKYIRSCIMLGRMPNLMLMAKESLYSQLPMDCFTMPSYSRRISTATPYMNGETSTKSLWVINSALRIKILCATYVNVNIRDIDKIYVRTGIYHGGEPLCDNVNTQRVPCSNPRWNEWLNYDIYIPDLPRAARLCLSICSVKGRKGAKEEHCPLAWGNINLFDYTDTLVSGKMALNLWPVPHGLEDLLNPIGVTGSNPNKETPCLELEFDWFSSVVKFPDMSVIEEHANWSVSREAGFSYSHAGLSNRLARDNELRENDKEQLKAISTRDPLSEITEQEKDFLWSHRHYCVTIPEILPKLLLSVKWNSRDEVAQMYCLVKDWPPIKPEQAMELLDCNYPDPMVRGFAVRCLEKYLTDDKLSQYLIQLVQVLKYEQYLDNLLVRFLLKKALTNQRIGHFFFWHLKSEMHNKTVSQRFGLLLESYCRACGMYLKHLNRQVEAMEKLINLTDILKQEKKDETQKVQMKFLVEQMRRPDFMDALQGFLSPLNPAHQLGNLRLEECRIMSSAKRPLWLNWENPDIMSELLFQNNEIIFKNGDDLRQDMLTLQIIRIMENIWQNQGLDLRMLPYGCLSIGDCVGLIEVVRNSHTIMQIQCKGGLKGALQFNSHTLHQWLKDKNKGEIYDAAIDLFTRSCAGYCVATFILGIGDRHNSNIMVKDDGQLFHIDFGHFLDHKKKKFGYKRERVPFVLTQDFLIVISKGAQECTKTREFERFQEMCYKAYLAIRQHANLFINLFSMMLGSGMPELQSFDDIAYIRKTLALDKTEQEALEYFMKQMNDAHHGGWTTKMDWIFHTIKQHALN
Phosphatidylinositol 4,5-bisphosphate 3-kinase catalytic subunit beta isoform, sequence (P42338 whole entry, canonical isoform): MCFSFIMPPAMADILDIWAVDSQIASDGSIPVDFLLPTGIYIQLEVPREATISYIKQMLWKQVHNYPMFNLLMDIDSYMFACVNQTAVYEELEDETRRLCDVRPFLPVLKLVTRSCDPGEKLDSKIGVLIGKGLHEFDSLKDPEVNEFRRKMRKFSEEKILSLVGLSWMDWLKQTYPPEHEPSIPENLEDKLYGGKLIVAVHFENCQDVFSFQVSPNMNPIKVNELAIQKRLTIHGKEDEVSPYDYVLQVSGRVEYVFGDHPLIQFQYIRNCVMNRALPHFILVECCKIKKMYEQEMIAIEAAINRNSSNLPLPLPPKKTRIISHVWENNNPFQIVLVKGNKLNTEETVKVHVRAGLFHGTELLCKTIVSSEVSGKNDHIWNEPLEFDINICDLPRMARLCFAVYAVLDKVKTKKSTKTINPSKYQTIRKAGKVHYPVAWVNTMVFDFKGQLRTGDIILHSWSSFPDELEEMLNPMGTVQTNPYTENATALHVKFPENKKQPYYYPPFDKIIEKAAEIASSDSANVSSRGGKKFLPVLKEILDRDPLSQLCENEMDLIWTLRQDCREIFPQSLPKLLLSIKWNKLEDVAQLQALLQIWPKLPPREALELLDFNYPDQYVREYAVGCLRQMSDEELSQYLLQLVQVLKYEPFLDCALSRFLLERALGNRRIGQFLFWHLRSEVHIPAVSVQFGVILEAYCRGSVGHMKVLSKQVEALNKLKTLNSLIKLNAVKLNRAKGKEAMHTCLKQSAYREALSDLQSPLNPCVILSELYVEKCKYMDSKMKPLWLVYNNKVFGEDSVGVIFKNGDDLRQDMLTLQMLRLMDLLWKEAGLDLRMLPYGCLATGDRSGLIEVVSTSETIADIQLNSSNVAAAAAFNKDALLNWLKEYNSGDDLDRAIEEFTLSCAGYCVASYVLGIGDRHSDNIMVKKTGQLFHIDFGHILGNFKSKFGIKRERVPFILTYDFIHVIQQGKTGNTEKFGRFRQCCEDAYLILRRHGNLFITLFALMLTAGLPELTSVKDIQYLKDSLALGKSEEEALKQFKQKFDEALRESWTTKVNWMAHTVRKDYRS

Turning to `c1cc(-c2nc(N3CCOCC3)c3oc4ncc(CN5CCCCC5)cc4c3n2)c2cc[nH]c2c1`, the IC50 in assay [1] turned out to be 508 nM; in assay [2], 503 nM; in assay [3], 10 nM; in assay [4], 4950 nM.

As a reminder, the IC50 is the concentration at which inhibition is half-maximal. Read a low IC50 as greater potency.
